Assay results as given in patent US10849872B2, “Methods and compositions for treating obesity, preventing weight gain, promoting weight loss, promoting slimming, or treating or preventing the development of diabetes” (NAN Global, LLC, priority 2014, dated 2020).

Experiments:
[1] = test system: C57BL/6 mice; experiment: Feeding experiments of C57BL/6 mice, oral tyrphostin 9; format: in vivo
Method: (§1) A preclinical toxicity study of tyrphostin 9 was conducted in human cell lines (brain, liver, lung, intestine, kidney, and muscle), followed by feeding experiments of C57BL/6 mice. In the in vivo mice experiments, the mice were orally administered tyrphostin 9 during 15 days, at a dose of 0.175 mg/kg/day.

[2] = test system: human neutrophils; details: well known properties; cited from earlier work
[3] = test system: overweight, obese, and/or diabetic subjects; experiment: Preliminary trial in overweight, obese, and/or diabetic subjects; format: in vivo, human
Method: A preliminary trial involving 75 overweight, obese, and/or diabetic subjects of both sexes was carried out over a twenty-month period. Exclusion criteria were: (1) recent significant weight gain, (2) a compromised thermoregulatory system, (3) pregnancy, (4) renal or hepatic failure, (5) use of illegal drugs or drugs that impair the body's heat dissipation mechanisms, (6) serious dysrhythmias, (7) unstable angina pectoris, (8) congestive heart failure, (9) severe cerebrovascular disease, (10) use of a pacemaker, (11) severe pulmonary impairment, (12) anemia, (13) Parkinson's disease, (14) body weight of less than 35 kilograms, (15) extensive psoriasis, (16) repeated episodes of hypoglycemia, (17) cystic fibrosis, (18) spinal cord injury, (19) a hereditary muscle disease, (20) chronic or recurrent venous thrombosis, (21) untreated hyperthyroidism, (22) exercise- or heat-induced angioedema, (23) seizure disorders, (24) schizophrenia, and (25) hypocalcemia.
Medications that reduce sweating, decrease vasodilatation, decrease cardiac output, or induce hypothalamic depression were not taken prior to, during, and immediately after treatment.
Obese participants, aged 16-72, were administered orally one or more hard gelatin capsules per day, each containing 20 mg of active ingredient (i.e., tyrphostin 9) and microcrystalline cellulose. They were instructed not to modify their food intake or to start a course of exercise. […] Afterwards, different dosing schedules were imposed, with refractory individuals being administered two or three capsules per day (i.e., 40 or 60 mg tyrphostin 9 per day), whereas only one capsule per day was administered to all others, who consequently received 20 mg tyrphostin 9 per day throughout the trial.
Participants were also instructed to prevent dehydration by drinking plenty of water and to replenish electrolytes by taking both potassium and magnesium supplements or V-8 Juice or Gatorade. Those receiving two capsules per day were asked to take them at the same time during weeks two and three and then to switch to one in the morning and one at night during weeks four and five. Participants receiving 40 mg tyrphostin 9 per day reported that sweating/body temperature peaked either during night time or day time, depending on whether the two capsules were taken in the morning or at night. […] Obese participants lost on average 4 kg per month, with cumulative weight losses of up to 48 kg.
Diabetic subjects (mostly obese and all presenting Type 2 diabetes mellitus) were similarly treated.

[4] = test system: human cell lines (brain, liver, lung, intestine, kidney, and muscle); experiment: Preclinical toxicity study in human cell lines; format: cell-based; details: all examined human cell lines: brain
Method: as §1

[5] = Shelf life of synthesised tyrphostin 9; format: physicochemical; details: at 25-35° C.
Method: This procedure yields about 800 g (about 95% yield) of a light-yellow microcrystalline solid that melts at 141-142° C. (uncorrected), presents UV absorption maxima at 247 nm and 365 nm and has an Rf value of 0.65 (using benzene as eluant and Merck's TLC silica gel 60 F254 plastic-backed sheets), with only one spot being observed. The mixed melting point of this compound and authentic tyrphostin 9 (acquired from Cayman Chemical) was also 141-142° C. (uncorrected), and its spectroscopic and chromatographic properties were identical to those of the authentic product. This compound is stable, with a shelf life of over 1 year at 25-35° C.; if necessary it may be recrystallized from ethanol.

[6] = well known properties; cited from earlier work
[7] = test system: differentiation of keratocytes into adipocytes; experiment: Inhibition of differentiation into adipocytes; format: cell-based
[8] = test system: obese subjects; experiment: Synergistic effects of tyrphostin 9 and L-carnitine tartrate in obese subjects; format: in vivo, human; details: Group A: two capsules per day of 20 mg tyrphostin 9, oral
Method: Obese subjects with similar BMI and whose weight had remained essentially constant during the past 30 days were recruited, instructed not to modify their eating habits, food intake, or lifestyle, and randomly and blindly assigned to either treatment Group A, Group B, or Group C.
Subjects in Group A were administered (orally) two capsules per day, each containing 20 mg Tyrphostin 9 plus inert excipient; subjects in Group B were administered (orally) four capsules per day, each containing 5 mg tyrphostin 9 and about 700 mg L-carnitine tartrate; subjects in Group C were administered—in the morning—two capsules, each containing 20 mg Tyrphostin 9 plus inert excipient, and—at night time—four capsules, each containing about 700 mg of L-carnitine tartrate.
After a two week washout period, a new experiment was initiated. Subjects in Group A were orally administered two capsules per day, each containing 20 mg Tyrphostin 9 plus inert excipient, subjects in Group B were given eight capsules per day, each containing 5 mg Tyrphostin 9 plus about 700 mg L-carnitine tartrate, and subjects in Group C were administered—in the morning—two capsules, each containing 20 mg tyrphostin 9 plus inert excipient and, at night, eight capsules each containing about 700 mg L-carnitine tartrate.

CC(C)(C)c1cc(C=C(C#N)C#N)cc(C(C)(C)C)c1O [tyrphostin 9]
toxicity or inflammation in treated mice ([1]; 0.175 mg/kg/day during 15 days, histochemical and behavioral criteria): no evidence of toxicity or inflammation
adipocyte dimensions ([1]; concomitant with visceral lipid transport): reduction
effect on chow intake ([1]; lean mice): no such effect
apoptosis induction, obese versus lean mice ([1]; mouse, in vivo): more evident in obese mice than in lean mice
glycogen storage in hepatocytes ([1]; mouse, in vivo): promotes
visceral lipid transport from adipocytes ([1]; mouse, in vivo): promotes
chow intake curtailed ([1]; obese mice grown on a high-fat diet, oral 0.175 mg/kg/day, 15 days): about 50%
adipocyte apoptosis mediated by caspase-3 ([1]; to a greater extent than taurosporine): promotes
TNF-induced respiratory burst of human neutrophils [2]: inhibits
sweating/heat sensation, two capsules simultaneously versus one in the morning and one at night ([3]; 40 mg per day, weeks two and three simultaneous, weeks four and five split): more intense during weeks two and three
slimming (waist circumference and other body measurements) ([3]; all participants, end of treatment): significant reductions in waist circumference
blood glucose level ([3]; diabetic subjects (Type 2 diabetes mellitus, mostly obese)): significant decrease
sweating / body temperature reported by participants ([3]; end of first week, one 20 mg capsule per day, oral): most of them reported sweating copiously and/or noticing a distinct increase in body temperature
sweating / heat sensation reported by participants ([3]; end of trial, 20, 40 or 60 mg per day, all participants): sweating copiously and/or experienced an increased heat sensation
adverse effects ([3]; human, in vivo): no adverse effects were reported
muscle mass loss ([3]; human, in vivo): negligible
rebound effect ([3]; human, in vivo): no “rebound effect” was observed
tolerability of treatment ([3]; human, in vivo): very well tolerated
blood lipid values ([3]; obese and diabetic subjects): lower blood lipid values
cumulative weight losses ([3]; obese participants): up to 48 kg
average weight loss ([3]; obese participants, 20-60 mg per day oral): 4 kg per month
toxicity in human cell lines [4]: low
shelf life [5]: over 1 year
toxicity (in vitro and in vivo) [6]: very low toxicity
differentiation of keratocytes into adipocytes [7]: inhibits
weight loss after 15 days [8]: about 2 kg
